Reference: patent publication US6835846B2, “Aliphatic compounds, process for their preparation and their usage” (Maruha Corporation, priority 2000, dated 2004)

What was measured:
cancer cell strain F10 = details: F10 cells; AHOP concentration of 10^−8 to 10^−6 M; maximum; cited from earlier work
[1] = tested on: endothelial cell-neutrophil interaction; assay: Anti-inflammatory tests using pseudo-blood vessel model (neutrophil transmigration and adhesion); type: cell-based, bovine; details: for neutrophil transmigration and adhesion: 0.1 and 1 microM compound, 10 microM AHOP in lower compartment, FIG. 4
Procedure: Transwells were used, each consisting of an upper compartment separated from a lower compartment by a porous membrane. A single layer of bovine endothelial cells was cultured on the porous membrane at the bottom surface of the transwell upper compartment. A suspension of fluorescence-labeled neutrophils was added to the transwell upper compartment, and AHOP was suspended within the lower compartment to an end concentration of 0.1 to 10 microM. That is, a pseudo-blood vessel in vitro inflammation model was thus constructed in which the upper compartment and the lower compartment of the transwell were isolated from each other via the endothelial layer, and the upper compartment corresponded to the interior of a blood vessel, while the lower compartment corresponded to the site of inflammation outside the blood vessel. Measurements were made of the number of the neutrophils passing from the upper compartment into the lower compartment through the endothelial layer, and the number of the neutrophils adhering to the endothelial layer. […] That is, AHOP was considered to act as an inflammation-inducing substance.
That is, the compound of Example 2 or 3 was added in an amount of 0.01 to 1 microM to the upper compartment or lower compartment of the transwell, and 10 microM AHOP was placed in the lower compartment to induce inflammation. As a control, inflammation was induced in the same way as above but without addition of any compounds of the invention.
Measurements were made of the number of the neutrophils passing from the upper compartment into the lower compartment through the endothelial layer, and the number of the neutrophils adhering to the endothelial layer. A relative neutrophil count (%) was calculated from the following equation:
Relative neutrophil count (%)=[number of neutrophils (passing and adhering) in the experimental group]/[number of neutrophils (passing and adhering) in the control]×100

Edg receptors = assay: Competition experiments using ^3H-AHOP on HL60 cells; type: binding; details: for competition with ^3H-AHOP: HL60 cells, ^3H-AHOP 1 nM, unlabeled compound 10 nM, 30 nM or 100 nM, 30 minutes at 4° C.; for inhibition of binding of ^3H-AHOP (to HL60 cells): compound 1 nM, 3 nM and 10 nM, FIG. 2
Procedure: The same premyeloblastoma cell strain HL60 expressing Edg receptors on the cell surface as used in Example 4 was used. The cells were harvested by centrifugation, then suspended in an F-12 culture medium (stored at 4° C., 10 ml), and carried into an RI laboratory. ^3H-AHOP (15 μCi/1 nM) at an end concentration of 1 nM, and an unlabeled compound (the compound of Example 2 or Example 3) at an end concentration of 10 nM, 30 nM or 100 nM were each added to 200 μl of the cell suspension (1×10^6 cells/ml F-12), and a binding test was conducted for 30 minutes at 4° C. (with occasional stirring). After centrifugation for 7 minutes at 12,000 rpm, the supernatant was rapidly (without damaging cell pellets) discarded with a micropipetter. The cell pellets were suspended in 1.5 ml of Ready Safe (Beckman), whereafter the suspension was transferred into a vial and measured for radioactivity by a liquid scintillation counter L2100 (Beckman).
The compounds of Example 2 and Example 3 were subjected to the same competition experiments as described above, except that they were added at concentrations of 1 nM, 3 nM and 10 nM.

Edg receptor = Edg receptor response test (intracellular Ca^2+ increase by AHOP in HL60 cells); type: cell-based; details: for concentration at which the Ca^2+ concentration increase by AHOP was dose-dependently suppressed / increase in the intracellular Ca^2+ concentration by the addition of AHOP: HL60 cells; for concentration at which the Ca^2+ concentration increase by AHOP was dose-dependently suppressed: AHOP 1 μM, FIG. 1; for increase in the intracellular Ca^2+ concentration by the addition of AHOP: test substance 30 μM, then AHOP 1 μM
Text: HL 60 cells were obtained from a cell bank, and subcultured for about 50 passages over a half-year period in accordance with the method described in BBRC '98, 263, p. 253 using an RPMI-1640 culture medium (Gibco) containing 10% fetal bovine serum to prepare a premyeloblastoma cell strain HL60 expressing Edg receptors on the cell surface. Using the premyeloblastoma cell strain HL60 expressing Edg receptors on the cell surface, the cell response of test substances was investigated. An increase in the intracellular Ca^2+ concentration was measured as an indicator of cell response. It is reported that when the Edg receptor on the HL60 cell surface is bound to AHOP, it phosphorylates G protein to activate IP3 kinase, whereafter the intracellular Ca^2+ concentration increases (FEBS Letter '96, 379, p. 260, BBRC '98, 253, p. 253). Thus, the intracellular Ca^2+ concentration serves as an indicator of Edg receptor response.
A Ca^2+ chelating reagent, Fura-2AM, was taken into HL60 cells.
A cell suspension (1.2 ml) was charged into a quartz cell, which was then mounted on a fluorometer LS50B (Perkin Elmer, for cell measurement). An excitation wavelength was alternately switched between 340 nm (exciting Fura-2 having chelated Ca^2+) and 380 nm (exciting unreacted Fura-2) at intervals of 0.5 milli second, and fluorescence intensity at 510 nm was measured.
Each test substance was added at an end concentration of 30 μM by means of a microsyringe, and then fluorescence intensity was traced to investigate whether Ca^2+ would increase or not. It was also confirmed whether Ca^2+ would increase or not when AHOP (1 μM) was added after addition of the test substance. Through these tests, the AHOP antagonism of each substance was studied.
Suramin, already confirmed to have antagonistic action, was used as a comparison. The experimental procedure was the same as described above, except that AHOP (1 μM) was added after addition of the test substance at varying concentration. An increase in the Ca^2+ concentration was evaluated by an increased Ca^2+ concentration (%) as a value relative to the increased Ca^2+ concentration in a negative control group (no drug added).

[2] = tested on: myocardial infarction due to reperfusion following ligation of the rabbit coronary artery; assay: Ligation-associated myocardial infarction model; type: in vivo
Procedure: The compound of Example 2 was used as a test substance for investigating its effect on myocardial infarction due to reperfusion following ligation of the rabbit coronary artery. Male NZW rabbits (weighing 2.83 to 3.20 kg) were purchased from Kitayama Labes, Co. Ltd., and bred and raised under the conditions: room temperature 20-26° C., humidity 40-70%, and illumination time 12 hours/day (7-19:00). The animals were allowed food and water ad libitum, and quarantined and acclimatized for 2 weeks or more. Then, the animals in good health were used. The above rabbits were administered 10 mg/kg of the compound of Example 2 through the jugular vein under anesthesia, and then the compound of Example 2 was continuously infused in a dose of 6.9 micro g/kg/min. In a control group, physiological saline (hereinafter referred to as PS) was administered in the same manner as in the experimental group. Then, coronary artery was ligated for 30 minutes, whereafter the ligature was released for reperfusion, and the blood pressure in the carotid artery, the pulse rate and the number of arrhythmias were measured. The carotid arterial blood pressure and pulse rate were measured before administration, during continuous intravenous infusion, during the ligation period (15 minute later and 30 minutes later), and during reperfusion. The carotid arterial blood pressure was calculated as mean blood pressure. The number of arrhythmias was counted as the number of extrasystoles that appeared during the ligation period (for 30 minutes) or during reperfusion. After 3 hours of reperfusion, the heart was removed, and sliced into 6 pieces. The living tissues were stained with 2,3,5-triphenyltetrazolium […] (TTC), the area of the infarct due to ligation was measured, and the percent of the infarct with respect to the area of the left ventricle was calculated.

[3] = tested on: vascular smooth muscle cells; assay: Action on vascular smooth muscle growth (BrdU assay); type: cell-based; details: rat vascular smooth muscle cells, sphingosylphosphorylcholine 10 μM, 24 hours, FIG. 3
Procedure: Thus, the actions of the compounds of Examples 2 and 3 on the growth of vascular smooth muscle cells were measured in the manner described below. Suramin confirmed to have Edg receptor antagonism was used as a positive control.
The rat carotid intima was rubbed by ballooning, and a tissue fragment was cultured by explant culture. Two weeks later, vascular smooth muscle cells harvested were cultured in a DMEM culture medium (Gibco) containing 10% fetal bovine serum. The cultures were subcultured several times for stabilization, whereafter the subcultures were seeded at a cell density of 5×10^3 cells/cm^2 for use in experiments.
Along with the growth factor sphingosylphosphorylcholine (10 μM), the compound of Example 2 or 3, or suramin was added to the cells, and 24 hours later, the cell density was measured by BrdU assay (Science '82, 218, p. 474, Cytometry '85, 6, p. 584).

[4] = rabbit acute myocardial infarction models
[5] = rabbit, 10 mg/kg jugular vein then 6.9 micro g/kg/min infusion
[6] = rabbit, 10 mg/kg then 6.9 micro g/kg/min, ligation 15 min
[7] = rabbit, 10 mg/kg then 6.9 micro g/kg/min, ligation 30 min
[8] = rabbit, 10 mg/kg then 6.9 micro g/kg/min, reperfusion 180 min
[9] = rabbit, baseline before administration

For CCCCCCCCCCCCCC=CC(O)C(N)COP(=O)(O)O (stereo not drawn) [AHOP, 2-amino-3-hydroxy-4-octadecene-1-phosphate, reference compound], the suppression of migration (cancer cell strain F10) is listed as ~80% and the “transmigration through the endothelial layer and adhesion of the neutrophils (inflammation-inducing action)” value ([1]; AHOP 10 microM in lower compartment) is listed as “promoted significantly”.
Work on CCCCCCCCCCCCCC[C@H](O)C(=O)N[C@H](CO)[C@@H](O)/C=C/CC/C=C(\C)CCCCCCCCC [Example 1, (4E,8E,2R,3S,2′S)-N-2′-hydroxyhexadecanoyl-9-methyl-4,8-octadecadiene-1,3-diol] yielded a melting point of 62 to 63 °C.
With CCCCCCCCCCCCCC[C@H](O)C(=O)N[C@H](CO)[C@@H](O)/C=C/CC/C=C(\C)CCCCCCCCC [Example 2, (4E,8E,2R,3S,2′S)-N-2′-hydroxyhexadecanoyl-9-methyl-4.8-octadecadiene-1,3-diol] the “competition with ^3H-AHOP” value (Edg receptors) was “competitive with ^3H-AHOP”, the “inhibition of binding of ^3H-AHOP (to HL60 cells)” value (Edg receptors) was “Dose-dependent inhibition” and the “neutrophil transmigration and adhesion” value [1] was “suppressed”. The “strength of the action in comparison with suramin (ED50)” value (Edg receptor; ED50 for intracellular Ca^2+ increase) was “about 40 times”, the “concentration at which the Ca^2+ concentration increase by AHOP was dose-dependently suppressed” value (Edg receptor) was 0.03 to 0.3 µM and the “increase in the intracellular Ca^2+ concentration by the addition of AHOP” value (Edg receptor) was “inhibited”. The “ligation-associated decrease in pulse rate (in words)” value [2, 4] was “tended to inhibit”, the “number of arrhythmias due to ligation (in words)” value [2, 4] was “reduce the number of arrhythmias due to ligation” and the “percent area of the infarct (in words)” value [2, 4] was “tendency toward decreasing”. For the same molecule, the “Mean blood pressure, continued i.v. infusion” value [2, 5] was 74 ± 9 mmHg, the “Pulse rate, continued i.v. infusion” value [2, 5] was 283 ± 10 beats/min and the “Mean blood pressure, ligation 15 min” value [2, 6] was 59 ± 10 mmHg. The “Pulse rate, ligation 15 min” value [2, 6] was 270 ± 9 beats/min, the “Mean blood pressure, ligation 30 min” value [2, 7] was 66 ± 8 mmHg and the “Pulse rate, ligation 30 min” value [2, 7] was 282 ± 4 beats/min. The “Mean blood pressure, reperfusion 180 min” value [2, 8] was 68 ± 4 mmHg, the “Pulse rate, reperfusion 180 min” value [2, 8] was 256 ± 10 beats/min and the “Infarct/left ventricle (percent area of the infarct)” value ([2]; rabbit, after 3 hours of reperfusion, TTC staining) was 14.0 ± 2.1%. For the same molecule, the “Mean blood pressure, before administration” value [2, 9] was 83 ± 4 mmHg, the “Pulse rate, before administration” value [2, 9] was 301 ± 9 beats/min and the “number of arrhythmias, reperfusion” value ([2]; rabbit, extrasystoles during reperfusion) was 17 ± 6. For the same molecule, the “number of arrhythmias, ligation” value ([2]; rabbit, extrasystoles during the ligation period (30 minutes)) was 12 ± 5 and the “concentrations at which vascular smooth muscle growth was inhibited” value [3] was 0.3 to 3 µM.
In the case of CCCCCCCCCCCCCCC(O)C(=O)N[C@@H](CO)[C@H](O)/C=C/CCCC(C)CCCCCCCCC (stereo partly drawn) [Example 3, (4E,2S,3R,2′RS)-N-2′-hydroxyhexadecanoyl-9-methyl-4-octadecene-1,3-diol], the melting point is reported as 52 to 57 °C, the “competition with ^3H-AHOP” value (Edg receptors) is reported as “competitive with ^3H-AHOP” and the “inhibition of binding of ^3H-AHOP (to HL60 cells)” value (Edg receptors) is reported as “Dose-dependent inhibition”. For the same molecule, the “neutrophil transmigration and adhesion” value [1] was “suppressed”, the “concentration at which the Ca^2+ concentration increase by AHOP was dose-dependently suppressed” value (Edg receptor) was 0.3 to 3 µM and the “increase in the intracellular Ca^2+ concentration by the addition of AHOP” value (Edg receptor) was “inhibited”. The “concentrations at which vascular smooth muscle growth was inhibited” value [3] was 1 to 10 µM.
